Laboratory results: publication PMC11906762, “Toward a high-throughput in vitro model for estimating vitreous humor permeability of topically applied drugs” (Scientific Reports, 2025)
Counter-ions that a name gives are not always drawn. Blank lines part the entries; values can stand above or below the molecule they belong to.

Columns and labels:
[1] = Modified corneal-PAMPA, PBS as acceptor medium, UV-vis plate reader; assay type: in vitro ADME; settings: general trend regardless of the acceptor medium
[2] = PAMPA with freshly excised porcine vitreous humor as acceptor medium; assay type: in vitro ADME; settings: 250 µM API in PBS; UV detection; also after precipitation and filtering
Protocol: (§1) For each assay 3 replicates per compounds were measured.
There has been an attempt made to use freshly excised porcine vitreous as acceptor medium in the experiments, for three APIs with sufficient absorption at a wavelength closer to the visible range (~ 300 nm) considering the cut-off of VH. […] When preparing the equilibrium solutions, one unit of API solution (250 µM, PBS) was mixed with (approximately) two units of VH. […] To gain clear spectra by removing background components, precipitation was attempted using cold acetonitrile, centrifugation, and filtration. […] The sample preparation process of VH containing samples was not further improved or investigated in this study.

[3] = PAMPA with HA-855 + agar (HA 0.07 w/v%; agar 0.095 w/v%) as acceptor medium; settings: for permeability decrease with HA-855 + agar compared with agar alone: cationic compounds, acceptor HA-855 + agar vs agar
Protocol: Finally, the solutions were stored at room temperature overnight.
as §1
In their study three types of HA-agar hydrogels were investigated with various HA and agar content from rheological and particle migration aspects. Hyaluronate as a viscoelastic polymer is an essential part of the model (as a native component of the VH itself) while agar is used to achieve elasticity and so to mimic the properties of the naturally occurring collagen fibrils. As a result of their study, they found the hydrogel containing 0.7 mg/ml (0.07 w/v%) HA (high molecular weight) and 0.95 mg/ml (0.095 w/v%) agar to be the most similar to bovine VH in the above-mentioned experiments. Since they conducted no permeability measurements with this promising hydrogel, we tested it as an acceptor medium in the PAMPA measurements. To gain further insight, experiments using only agar-containing acceptor phase were also carried out, since the standalone effect of the high molecular weight Na-HA was already investigated.

[4] = Solubility in PBS buffer (pH 7.4) for PAMPA donor solutions; assay type: physicochemical; settings: PBS pH 7.4; used at 100 µM instead of 250 µM nominal concentration
[5] = PAMPA with HA-200 (0.1 w/v%) as acceptor medium; settings: HA (HA-200, HA-855; 0.1 w/v%) as acceptor-phase component; very low permeability and interference of HA with absorbance signal

- permeability (qualitative) [1]: low permeability
- detection of API in porcine vitreous humor acceptor medium [2]: no API could be detected
SMILES: COc1c(N2C[C@@H]3CCCN[C@@H]3C2)c(F)cc2c(=O)c(C(=O)O)cn(C3CC3)c12 [moxifloxacin, moxifloxacin hydrochloride]

SMILES: CCN(CC)CCCC(C)Nc1ccnc2cc(Cl)ccc12 (centres unmarked) [chloroquine diphosphate]
- permeability decrease with HA-855 + agar compared with agar alone [3]: decrease the permeability in a greater extent than agar alone

- solubility (qualitative) [4]: poor solubility
SMILES: C[C@@H]1C[C@H]2[C@@H]3CCC4=CC(=O)C=C[C@]4(C)[C@@]3(F)[C@@H](O)C[C@]2(C)[C@@]1(O)C(=O)CO [dexamethasone]
- detection in the acceptor medium [5]: could not be detected in the acceptor medium

SMILES: CNC(=C[N+](=O)[O-])NCCSCc1ccc(CN(C)C)o1 [ranitidine, ranitidine hydrochloride]
- detection in the acceptor medium [5]: could not be detected in the acceptor medium

SMILES: CNCC[C@H](Oc1cccc2ccccc12)c1cccs1 [duloxetine HCl, duloxetine hydrochloride]
- permeability decrease with HA-855 + agar compared with agar alone [3]: decrease the permeability in a greater extent than agar alone

- direction of permeability change against corneal-PAMPA (PBS) ([3]; acceptor HA-855 + agar): significant increase
SMILES: O=C(O)Cc1ccccc1Nc1c(Cl)cccc1Cl [diclofenac Na]

- permeability (qualitative) [1]: low permeability
- detection of API in porcine vitreous humor acceptor medium [2]: no API could be detected
SMILES: O=C(c1ccccc1)c1ccc2n1CCC2C(=O)O (centres unmarked) [ketorolac]

SMILES: CC(C)NCC(O)COc1cccc2ccccc12 (centres unmarked) [propranolol HCl, propranolol hydrochloride]
- permeability decrease with HA-855 + agar compared with agar alone [3]: decrease the permeability in a greater extent than agar alone

- solubility (qualitative) [4]: poor solubility
SMILES: NC(=O)N1c2ccccc2C=Cc2ccccc21 [carbamazepine]

SMILES: CCCCNc1ccc(C(=O)OCCN(C)C)cc1 [tetracaine HCl, tetracaine hydrochloride]
- permeability decrease with HA-855 + agar compared with agar alone [3]: decrease the permeability in a greater extent than agar alone

SMILES: CCn1cc(C(=O)O)c(=O)c2cc(F)c(N3CCNCC3)nc21 [enoxacin]
- detection in the acceptor medium [5]: could not be detected in the acceptor medium

SMILES: N=C(N)c1ccc(OCCCOc2ccc(C(=N)N)cc2)cc1 [propamidine]
- detection in the acceptor medium [5]: could not be detected in the acceptor medium

SMILES: CCCCOc1cc(C(=O)OCCN(CC)CC)ccc1N [oxybuprocaine HCl, oxybuprocaine hydrochloride]
- permeability decrease with HA-855 + agar compared with agar alone [3]: decrease the permeability in a greater extent than agar alone

SMILES: CC(C)(C)NC[C@H](O)COc1nsnc1N1CCOCC1 [timolol, timolol maleate]
- permeability decrease with HA-855 + agar compared with agar alone [3]: decrease the permeability in a greater extent than agar alone
